# Assay results taken from paper PMC9813914, “Structural Basis for a Cork-Up Mechanism of the Intra-Molecular Mesaconyl-CoA Transferase” (Biochemistry, 2022).
# Target: T1, Mct (mesaconyl-CoA transferase; mesaconyl-C1:C4-CoA CoA transferase) (Chloroflexus aurantiacus, UniProt A9WC36)
# T1 construct: intertwined homodimer
# T1 sequence (A9WC36 1-409): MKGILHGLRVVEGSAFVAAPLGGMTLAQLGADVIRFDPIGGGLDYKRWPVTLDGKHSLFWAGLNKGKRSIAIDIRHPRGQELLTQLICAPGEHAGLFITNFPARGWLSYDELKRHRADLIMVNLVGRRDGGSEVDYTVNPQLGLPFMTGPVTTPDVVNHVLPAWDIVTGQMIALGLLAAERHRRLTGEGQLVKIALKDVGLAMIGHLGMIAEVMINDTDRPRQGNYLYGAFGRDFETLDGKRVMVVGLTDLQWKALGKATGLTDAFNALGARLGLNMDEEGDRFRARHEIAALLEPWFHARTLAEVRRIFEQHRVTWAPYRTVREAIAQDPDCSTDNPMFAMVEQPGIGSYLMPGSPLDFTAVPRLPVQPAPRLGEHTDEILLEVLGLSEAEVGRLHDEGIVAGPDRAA
# Experiment: HPLC-MS of succinyl-CoA formation
# Format: biochemical
# Conditions: alternative CoA acceptor (side activity); co-substrate 1 mM mesaconyl-C4-CoA; 200 mM HEPES/KOH pH 8.0, 55 °C, 6 μM Mct; read-out: apparent KM
compound,measurement,value
O=C(O)CCC(=O)O [succinate],Km,> 25 mM
